Earlier results in patent US20140080864A1, “PHARMACETUICAL COMPOSITION COMPRISING DROTAVERINE” (CHINOIN PRIVATE CO LTD, priority 2011, published 2014).
Counter-ions that a name gives are not always drawn.

Conditions: oral dose, healthy individuals; mean SD

## CCOc1ccc(/C=C2\NCCc3cc(OCC)c(OCC)cc32)cc1OCC [drotaverine hydrochloride, 1-(3,4-diethoxybenzylidene)-6,7-diethoxy-1,2,3,4-tetrahydroisoquinoine]
  absolute bioavailability (mean): 58.2%
